Measured values reported in patent publication US6737383B1, “Herbicidal oxadiazolidines” (priority 1999, dated 2004).

Experiments:
[1] = tested on: wild oat; experiment: Test B pre/postemergence wild oat; format: in vivo, Avena fatua
How it was run: (§1)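 Test chemicals in a non-phytotoxic solvent mixture with surfactant were sprayed preemergence onto planted seeds and postemergence onto plants 2 to 18 cm tall (1- to 4-leaf stage). After twelve to sixteen days in a greenhouse, injury was visually rated against untreated controls from 0 (no effect) to 10 (complete control).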

[2] = tested on: Johnson grass; experiment: Test D Johnson grass; format: in vivo, Sorghum halepense; details: Rate 64 g/ha, Preemergence; 0 to 100 scale, 0 no injury, 100 complete control
How it was run: (§2)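 Weed seeds planted in sandy loam; species kept apart in individual pots or compartments. Preemergence tests: treatment to soil surface within one day. Greenhouse growth, then visual injury scoring at 14–21 days (0–100).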

[3] = tested on: Alexandergrass; experiment: Test D Alexandergrass; format: in vivo, Brachiaria plantaginea; details: Rate 64 g/ha, Preemergence; 0 to 100 scale, 0 no injury, 100 complete control
How it was run: as §2

[4] = tested on: tall mallow; experiment: Test D tall mallow; format: in vivo, Malva sylvestris; details: Rate 64 g/ha, Preemergence; 0 to 100 scale, 0 no injury, 100 complete control
How it was run: as §2

[5] = tested on: surinam grass; experiment: Test D surinam grass; format: in vivo, Brachiaria decumbens; details: Rate 64 g/ha, Preemergence; 0 to 100 scale, 0 no injury, 100 complete control
From the text: Seeds, tubers, or plant parts of Alexandergrass (Brachiaria plantaginea), bermuda-grass (Cynodon dactylon), common pursiane (Portulaca oleracea), common ragweed (Ambrosia elatior), common groundsel (Senecio vulgaris), dallisgrass (Paspalum dilatatum), goosegrass (Eleusine indica), guineagrass (Panicum maximum), itchgrass (Rottboellia exaltata), Johnson grass (Sorghum halepense), large crabgrass (Digitaria sanguinalis), pitted morningglory (Ipomoea lacunosa), purple nutsedge (Cyperus rotundus), sandbur (Cenchrus echinatus), sourgrass (Trichachne insularis), Spanishneedles (Bidens bipinnata), surinam grass (Brachiaria decumbens) and tall mallow (Malva sylvestris) were planted into greenhouse pots of flats containing greenhouse planting medium. Plant species were grown in separate pots or individual compartments. Preemergence applications were made within one day of planting the seed or plant part.
Test chemicals were formulated in a non-phytotoxic solvent mixture which included a surfactant and applied preemergence to the surface of the pot containing seeds in a sandy loam soil. Untreated control pots and treated pots were placed in the greenhouse for growth and visually evaluated for injury 14 to 21 days after herbicide application. Plant response ratings, summarized in Table C, are based on a 0 to 100 scale where 0 is no injury and 100 is complete control. A dash (−) response means no test result.

[6] = tested on: blackgrass; experiment: Test B pre/postemergence blackgrass; format: in vivo, Alopecurus myosuroides
How it was run: as §1

[7] = tested on: winter wheat; experiment: Test E winter wheat; format: in vivo, Triticum aestivum; details: Postemergence, 0 to 100 scale, 0 is no effect, 100 is complete control
How it was run: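 For postemergence, sowings are timed so plants reach the 1- to 4-leaf stage at spraying. Test compound is applied in a surfactant-containing solvent mixture that is non-phytotoxic. Response is judged by eye against untreated controls after approximately 21 to 28 days.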

[8] = tested on: bamyardgrass; experiment: Test B flood test barnyardgrass; format: in vivo, Echinochloa crus-galli
How it was run: (§3)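 Each value is a visual injury score relative to controls, with 10 meaning complete control and 0 no effect. Evaluation took place twelve to sixteen days after the 2-leaf-stage plants were treated and kept in the greenhouse.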

[9] = tested on: green foxtail; experiment: Test E green foxtail; format: in vivo, Setaria viridis; details: Preemergence
[10] = tested on: winter barley; experiment: Test E winter barley; format: in vivo, Hordeum vulgare; details: Preemergence
[11] = tested on: blackgrass; experiment: Test E blackgrass; format: in vivo, Alopecurus myosuroides; details: Preemergence
[12] = tested on: winter wheat; experiment: Test E winter wheat; format: in vivo, Triticum aestivum; details: Preemergence
[13] = tested on: wild oat; experiment: Test E wild oat; format: in vivo, Avena fatua; details: Preemergence
[14] = tested on: Italian ryegrass; experiment: Test E Italian ryegrass; format: in vivo, Lolium multiflorum; details: Preemergence
[15] = tested on: smallflower flatsedge; experiment: Test B flood test smallflower flatsedge; format: in vivo, Cyperus difformis
How it was run: as §3

[16] = tested on: rice; experiment: Test B flood test rice; format: in vivo, Oryza sativa
How it was run: as §3

[17] = Postemergence, Rate 125 g/ha, scale of 0 to 10 where 0 is no effect and 10 is complete control
[18] = Preemergence, Rate 62 g/ha, scale 0 to 10 (0 no effect, 10 complete control)
[19] = Preemergence, Rate 125 g/ha, 0 is no effect, 10 is complete control
[20] = Preemergence, Rate 250 g/ha, scale 0 to 10, 0 is no effect, 10 is complete control
[21] = Preemergence, Rate 500 g/ha, scale 0 to 10 (0 no effect, 10 complete control)
[22] = Rate 62 g/ha, Postemergence, scale of 0 to 10 where 0 is no effect and 10 is complete control
[23] = Rate 250 g/ha, Postemergence, scale 0 to 10, 0 is no effect, 10 is complete control
[24] = Rate 500 g/ha, Postemergence, scale 0 to 10
[25] = Rate 62 g/ha, flood test species, Pre-emergence, visual evaluation after twelve to sixteen days
[26] = Rate 125 g/ha, under heading Pre-emergence, flood test species, visual evaluation after twelve to sixteen days
[27] = Rate 250 g/ha, Pre-emergence, flood-test species, scale 0 to 10, 0 is no effect, 10 is complete control
[28] = Rate 500 g/ha, Pre-emergence, flood test species, scale 0 to 10 (0 no effect, 10 complete control)
[29] = Rate 500 g/ha, 0 to 100 scale (0 no effect, 100 complete control)
[30] = Postemergence, Rate 125 g/ha, scale 0 to 10, 0 is no effect, 10 is complete control
[31] = Postemergence, Rate 500 g/ha, scale of 0 to 10 where 0 is no effect and 10 is complete control
[32] = Preemergence, Rate 250 g/ha, scale of 0 to 10 where 0 is no effect and 10 is complete control
[33] = Preemergence, Rate 500 g/ha, scale of 0 to 10 where 0 is no effect and 10 is complete control

CCCn1c(=O)on(C(=O)N(c2ccc(F)cc2F)C(C)C)c1=O [Compound 130]
Wild oats plant response rating [1, 17]: 2 | Wild oats plant response rating [1, 18]: 7 | Wild oats plant response rating (0 to 10 scale) [1, 19]: 8 | Wild oats plant response rating [1, 20]: 10 | Wild oats plant response rating [1, 21]: 10 | Wild oats plant response rating [1, 22]: 0 | Plant response rating, Wild oats [1, 23]: 5 | Wild oats plant response rating [1, 24]: 8 | Plant response rating Johnsongrass [2]: 65 | Plant response rating, Alexandergrass [3]: 98 | Tall Mallow plant response rating [4]: 85 | Surinam grass plant response rating [5]: 80 | Blackgrass plant response rating [6, 17]: 5 | Blackgrass plant response rating [6, 18]: 5 | Blackgrass plant response rating (0 to 10 scale) [6, 19]: 9 | Blackgrass plant response rating [6, 20]: 9 | Blackgrass plant response rating [6, 21]: 10 | Blackgrass plant response rating [6, 22]: 3 | Plant response rating, Blackgrass [6, 23]: 7 | Blackgrass plant response rating [6, 24]: 8

CC(C)N(C(=O)n1oc(=O)n(CCC#N)c1=O)c1ccc(F)cc1 [Compound 388]
Plant response rating, Wheat (winter) ([7]; Rate 125 g/ha): 30 | Plant response rating, Wheat (winter) ([7]; Rate 250 g/ha): 30 | Plant response rating, Wheat (winter) ([7]; Rate 500 g/ha): 65 | Plant response rating, Barnyardgrass (0 to 10 scale, 0 is no effect, 10 is complete control) [8, 25]: 0 | Barnyardgrass plant response rating (0 to 10 scale, 0 is no effect, 10 is complete control) [8, 26]: 0 | Barnyardgrass plant response rating [8, 27]: 0 | Barnyardgrass plant response rating [8, 28]: 0 | Plant response rating, Green foxtail ([9]; Rate 125 g/ha, 0 to 100 scale): 30 | Plant response rating, Green foxtail ([9]; Rate 250 g/ha, 0 to 100 scale): 40 | Plant response rating, Green foxtail [9, 29]: 85 | Plant response rating, Barley (winter) ([10]; Rate 125 g/ha, 0 to 100 scale (0 no effect, 100 complete control)): 10 | Plant response rating, Barley (winter) ([10]; Rate 250 g/ha, 0 to 100 scale, 0 no effect, 100 complete control): 20 | Plant response rating, Barley (winter) [10, 29]: 70 | Plant response rating, Wild oats [1, 30]: 0 | Plant response rating, Wild oats ([1]; Postemergence, Rate 250 g/ha, scale 0 to 10, 0 is no effect, 10 is complete control): 0 | Wild oats plant response rating [1, 31]: 6 | Plant response rating, Wild oats [1, 18]: 3 | Wild oats plant response rating (0 to 10 scale) ([1]; Preemergence, Rate 125 g/ha): 6 | Wild oats plant response rating [1, 32]: 10 | Wild oats plant response rating [1, 33]: 10 | Wild oats plant response rating [1, 22]: 0 | Plant response rating, Blackgrass ([11]; Rate 125 g/ha, 0 to 100 scale): 0 | Plant response rating, Blackgrass ([11]; Rate 250 g/ha, 0 to 100 scale): 0 | Plant response rating, Blackgrass [11, 29]: 40 | Plant response rating, Wheat (winter) ([12]; Rate 125 g/ha, 0 to 100 scale): 50 | Plant response rating, Wheat (winter) ([12]; Rate 250 g/ha, 0 to 100 scale): 50 | Plant response rating, Wheat (winter) [12, 29]: 60 | Plant response rating, Wild oat ([13]; Rate 125 g/ha, 0 to 100 scale): 20 | Plant response rating, Wild oat ([13]; Rate 250 g/ha, 0 to 100 scale): 20 | Plant response rating, Wild oat [13, 29]: 30 | Plant response rating, I. Ryegrass ([14]; Rate 125 g/ha, 0 to 100 scale): 30 | Plant response rating, I. Ryegrass ([14]; Rate 250 g/ha, 0 to 100 scale): 40 | Plant response rating, I. Ryegrass [14, 29]: 60 | Plant response rating, Blackgrass [6, 30]: 8 | Blackgrass plant response rating [6, 31]: 10 | Plant response rating, Blackgrass [6, 18]: 0 | Blackgrass plant response rating (0 to 10 scale) ([6]; Preemergence, Rate 125 g/ha): 1 | Blackgrass plant response rating [6, 32]: 5 | Blackgrass plant response rating [6, 33]: 6 | Plant response rating, S. Flatsedge (0 to 10 scale, 0 is no effect, 10 is complete control) [15, 25]: 0 | S. Flatsedge plant response rating (0 to 10 scale, 0 is no effect, 10 is complete control) [15, 26]: 0 | S. Flatsedge plant response rating [15, 27]: 0 | S. Flatsedge plant response rating [15, 28]: 0 | Plant response rating, Rice (0 to 10 scale, 0 is no effect, 10 is complete control) [16, 25]: 0 | Rice plant response rating (0 to 10 scale, 0 is no effect, 10 is complete control) [16, 26]: 0 | Rice plant response rating [16, 27]: 0 | Rice plant response rating [16, 28]: 0
